Experimental data from patent US5340818A, “Methods and compositions for inhibiting tumor cell growth” (priority 1993, dated 1994).
Values joined by “and” are separate entries in the source; they are usually repeats but may differ in a detail not shown here. Identical values can stand only once. Like-named read-outs stand apart in the source and are kept apart here.

How the values were obtained:
B82 leukemia = settings: ip, 37.5 × 1 × 7 mg/kg/day; cited from earlier work
C1498 leukemia = settings: ip, 28 × 1 × 10 mg/kg/day; cited from earlier work
P1534 leukemia = settings: ip, 30 × 1 × 10 mg/kg/day; cited from earlier work
L5178Y leukemia = settings: ip, 28 × 1 × 10 mg/kg/day; cited from earlier work
AKR leukemia = settings: ip, 28 × 1 × 10 mg/kg/day; cited from earlier work
Ehrlich ascites = settings: ip, 30 × 1 × 10 mg/kg/day; cited from earlier work
Sarcoma 180 = settings: ip, 30 × 1 × 10 mg/kg/day; cited from earlier work
[1] = system: Ridgeway osteogenic sarcoma; settings: ip, 48 × 1 × 9 mg/kg/day; cited from earlier work
X5563 myeloma = settings: ip, 30 × 1 × 8 mg/kg/day; cited from earlier work
Adrenocarcinoma 755 = settings: ip, 30 × 1 × 10 mg/kg/day; cited from earlier work
Shionogi carcinoma 115 = settings: ip, 36 × 1 × 9 mg/kg/day; cited from earlier work
S91 melanoma = settings: ip, 36 × 1 × 9 mg/kg/day; cited from earlier work
tumors = settings: literature, cited from earlier work
L5178Y cells = settings: cultured L5178Y cells; cited from earlier work
DNA = settings: cited from earlier work
L1210/0 cells = assay: Cross-resistance studies: growth inhibition of doxorubicin-sensitive L1210/0 cells; type: cell-based; settings: L1210/0 (doxorubicin sensitive)
BREI = assay: Survival time evaluation, BREI (ip) in BDF1 mice; type: in vivo, mouse; set-up: Survival Time, individual mice / AST: unit not given here; settings: for AST / Day 7 AWC / N/T (15 day survivors/total mice) / Survival Time, individual mice / % ILS: day 1, QDX4; for % ILS: 25% or greater indicates activity
Description: 0.2 ML BREI (ip) ca. 10 6 cells IN BDF1 (FEMALE) 19-21 g
DILUENT - COCKTAIL DIL 1:10 dextrose
SCHEDULE - DAY 1, QDX4 bid (ip) DAY 1, QDX4 per os

L1210 leukemia = L1210 leukemia survival time evaluation in BDF1 mice; settings: for Day 6 AWC / MST / N/T (nine day survivors/total mice) / Survival Time, individual mice / % ILS (increase in lifespan): day 1, QDX4 ip; for % ILS (increase in lifespan): 25% or greater indicates activity

## COc1cc2c(c3c1c(=O)c1ccccc1n3C)C=CC(C)(C)O2 [Compound 1, Acronycine]
B82 leukemia
  Percent activity: 61%
C1498 leukemia
  Percent activity: 79(7) Percent
P1534 leukemia
  Percent activity: 0%
L5178Y leukemia
  Percent activity: 62%
AKR leukemia
  Percent activity: 78(5) Percent
Ehrlich ascites
  Percent activity: 0(1) Percent
Sarcoma 180
  Percent activity: 40(9) Percent
[1]
  Percent activity: 100(10) Percent
X5563 myeloma
  Percent activity: 100(8) Percent
Adrenocarcinoma 755
  Percent activity: 40(10) Percent
Shionogi carcinoma 115
  Percent activity: 100(7) Percent
S91 melanoma
  Percent activity: 100(4) Percent
tumors
  antitumor activity, in words: broad spectrum of antitumor activity
tumors; listed as acronycine
  antitumor activity, in words: effective against a wide range of neoplasms
L5178Y cells
  inhibition of incorporation of extracellular nucleosides into DNA and RNA, in words: inhibit the incorporation of extracellular nuclosides into the DNA and RNA
DNA
  interaction with DNA, in words: did not interact with DNA

## COc1c(OC)c(OC)c2c(c1O)c(=O)c1ccc(O)c(OC)c1n2C [Compound 31, Glyfoline]
L1210/0 cells
  IC50: 2090 nM
BREI; 100 mg/kg bid ip
  AST: 14.2
  Day 7 AWC: +1.0 g
  N/T (15 day survivors/total mice): 0/5
  Survival Time, individual mice: 13 and 14 and 17
  % ILS: 18%
BREI; 500 mg/kg p.o.
  AST: > 19
  Day 7 AWC: +0.8 g
  N/T (15 day survivors/total mice): 1/5
  Survival Time, individual mice: 13 and 14 and 15 and > 40
  % ILS: > 62%
BREI; oral route
  tumorfree survival (one mouse): > 40 days
L1210 leukemia; 6.25 mg/kg
  Day 6 AWC: +1.8 g
  MST: 7.0
  N/T (nine day survivors/total mice): 0/2
  Survival Time, individual mice: 7
  % ILS (increase in lifespan): 0%
L1210 leukemia; 12.5 mg/kg
  Day 6 AWC: +2.0 g
  MST: 8.0
  N/T (nine day survivors/total mice): 0/2
  Survival Time, individual mice: 8
  % ILS (increase in lifespan): 14%
L1210 leukemia; L1210, BDF mice, low doses, ip
  antileukemic activity, in words: some activity
